Read-outs that look alike come from different tables or passages of the source. Each block holds one compound with its values, some of them ahead of it.
Experiments:
[1] = Identification of prototypes and metabolites in rat serum and urine by UPLC-LTQ-Orbitrap-MS2 after BF extracts; format: in vivo, SD rats; details: for Location: rat serum or urine after 500 mg/kg BW BF extracts, UPLC-LTQ-Orbitrap-MS2; for Detected in serum and/or urine: rat, after gavage of BF extracts
Source text: A total of 24 male SD rats aged between 6 and 8 weeks (200–220 g) were acquired from the Laboratory Animal Center of Jiangxi University of Chinese Medicine (Nanchang, China). […] During this period, they had free access to food and water. After adaptive feeding, rats were randomly divided into three groups (n = 8), including a negative control, serum collection, and urine collection groups. […] To establish baseline data, blood samples were collected from all rats before administering the BF extracts. […] Pretreatment of serum and urine samples was according to our previous study. The animal experiments were approved by the Animal Ethics Committee of Jiangxi University of Chinese Medicine (TEMPOR20230112).
The metabolic profile from blood and urine samples were conducted by UPLC-LTQ-Orbitrap-MS2 (Thermo Scientific, Bremen, Germany) according to previously published methods. The samples were prepared by SPE, centrifuged at 4 °C and 2000 rpm, and stored at −80 °C. […] The LTQ-Orbitrap-MS2 was operated in negative mode with a scan range of 50–2000 m/z. A data-dependent scan with CID was performed for fragmentation. The collision energy was set at 45 eV. Data acquisition and processing were performed with Xcalibur v.2.0 software (Thermo Fisher, San Jose, CA, USA) and Qualbrowser.

[2] = Serum pharmacokinetics in rats after consumption of 500 mg/kg BW of BF extracts; format: in vivo, SD rats; details: for Detection in rat plasma/blood after administration of BF extracts: 500 mg/kg BW BF extracts
Experimental: A total of 24 male SD rats aged between 6 and 8 weeks (200–220 g) were acquired from the Laboratory Animal Center of Jiangxi University of Chinese Medicine (Nanchang, China). Prior to experimentation, the rats were acclimated for 7 days in an air-conditioned room maintained at 24 ± 1 °C with a 12 h light/dark cycle. During this period, they had free access to food and water. After adaptive feeding, rats were randomly divided into three groups (n = 8), including a negative control, serum collection, and urine collection groups. […] To establish baseline data, blood samples were collected from all rats before administering the BF extracts. Blood was collected from the orbits at 15 min, 30 min, 1 h, 1.5 h, 2 h, 4 h, 6 h, 8 h, and 10 h after drug administration. Urine was collected at 6, 12, and 24 h after administration. Pretreatment of serum and urine samples was according to our previous study. The animal experiments were approved by the Animal Ethics Committee of Jiangxi University of Chinese Medicine (TEMPOR20230112).
The quantification of substances identified was performed using an AB TRIPLE QUAD 4500 HPLC-MS2 (AB SCIEX, Framingham, MA, USA) system equipped with a C18 column (2.1 × 100 mm, 1.7 μm particle size; ACQUITY) at room temperature (25 °C). The mobile phase consisted of A (water containing 0.2% formic acid, v/v) and B (acetonitrile containing 0.2% formic acid, v/v) and the following binary program was used: 0–3 min, 5% B; 3–4 min, 95% B; 4–4.1 min, 95–5% B; 4.1–6.0 min, 5% B. The flow rate was 0.3 mL/min, and the injection volume was 10 μL. For sensitive detection and quantification, the analysis employed electrospray ionization (ESI) followed by multiple reaction monitoring (MRM) to selectively monitor the fragmentation patterns of the target analytes. Data acquisition and processing were performed with Qualbrowser.
Blood concentration/time data analysis was performed by non-compartment model analysis and processed using Peak View®1.6 (AB SCIEX), according to a previous publication. All data are presented as mean ± standard deviation (SD). The maximum plasma concentration (Cmax), and the time to reach the maximum plasma concentration (tmax) was calculated from the observed values.

[3] = design: method as in PMID 16848510; details: cited from earlier work
[4] = rat serum, oral 500 mg/kg BW BF extracts, n = 8
[5] = male, SD, rat serum, oral 500 mg/kg BW BF extracts, n = 8

Compound: OC[C@H]1O[C@@H](Oc2cc3c(O)cc(O)cc3[o+]c2-c2cc(O)c(O)c(O)c2)[C@H](O)[C@@H](O)[C@@H]1O [Delphinidin 3-glucoside, delphinidin 3-glucoside]
Location [1]: S, U
Detected in serum and/or urine [1]: both serum and urine
AUC0-10 ([2]; rat serum, oral 500 mg/kg BW BF extracts, 0 to 10 h, n = 8): 0.054654 ± 0.009089 µM·h
Cmax [2, 4]: 51.6 ± 3.2 nM
t1/2 [2, 4]: 1.639 ± 0.271 h
tmax [2, 4]: 0.5 h
Detection in rat plasma/blood after administration of BF extracts [2]: detected

Compound: cyanidin-3-(p-coumaroyl) glucose
Location [1]: S
Detected in serum and/or urine [1]: serum

Compound: delphinidin-3-p-coumaroyl-rutinoside-5-glucoside [nasunin]
Time of rapid peak in rat plasma (postprandial) [3]: 15 min

Compound: benzoic acid-4-glucuronide [M19]
Location [1]: S, U

Compound: C[C@@H]1O[C@@H](OC[C@H]2O[C@@H](Oc3c(-c4ccc(O)c(O)c4)oc4cc(O)cc(O)c4c3=O)[C@H](O)[C@@H](O)[C@@H]2O)[C@H](O)[C@H](O)[C@H]1O [rutin]
Detected in serum and/or urine [1]: exclusively in urine

Compound: O=C(O)c1ccc(O)cc1 [4-Hydroxybenzoic acid, 4-hydroxybenzoic acid]
AUC(0-t) ([2]; male, SD, rat serum, oral 500 mg/kg BW BF extracts, 0 to 10 h, n = 8, read-out: AUC0-10): 0.0313 ± 0.00191 µM·h
Cmax [2, 5]: 6.98 ± 0.805 nM
half-life [2, 5]: 6.48 ± 5.16 h
tmax ([2]; male, SD, rat serum, oral 500 mg/kg BW BF extracts, n = 8, read-out: tmax): 1 h
Detection in rat plasma/blood after administration of BF extracts [2]: detected

Compound: O=C([O-])CC(=O)OC[C@H]1O[C@@H](Oc2cc3c(O)cc(O)cc3[o+]c2-c2cc(O[C@@H]3O[C@H](COC(=O)/C=C/c4ccc(O[C@@H]5O[C@H](COC(=O)/C=C/c6ccc(O)cc6)[C@@H](O)[C@H](O)[C@H]5O)cc4)[C@@H](O)[C@H](O)[C@H]3O)c(O)c(O[C@@H]3O[C@H](COC(=O)/C=C/c4ccc(O[C@@H]5O[C@H](COC(=O)/C=C/c6ccc(O)cc6)[C@@H](O)[C@H](O)[C@H]5O)cc4)[C@@H](O)[C@H](O)[C@H]3O)c2)[C@H](O)[C@@H](O)[C@@H]1O [ternatin D1]
Detection in rat plasma/blood after administration of BF extracts [2]: not detected

The next lines start with the values.

Location [1]: S, U
Compound: O=C(O)c1ccc(O[C@@H]2O[C@H](C(=O)O)[C@@H](O)[C@H](O)[C@H]2O)c(O)c1 [M13, PCA-4-glucuronide]

Location [1]: S
Compound: O=C(O)c1ccc(O)c(OC2OC(C(=O)O)C(O)C(O)C2O)c1 (stereo not shown) [M11, PCA-3-glucuronide]

Location [1]: S, U
Compound: Oc1cc(O)c2cc(O)c(-c3cc(O)c(O)c(O)c3)[o+]c2c1 [M16, delphinidin]

Location [1]: S
Compound: COc1cc(C(=O)O)ccc1O[C@@H]1O[C@H](C(=O)O)[C@@H](O)[C@H](O)[C@H]1O [M12, VA-4-glucuronide]

— article PMC11120612, “In Vitro and In Vivo Evaluating Bioaccessibility, Bioavailability, and Antioxidant Activities of Butterfly Pea Flower Containing Bioactive Constitutes” (Foods, 2024)
